SMILES strings stand for the structures.

The source of these data is patent US9610293B2, “Co-micronization product comprising ulipristal acetate” (LABORATOIRE HRA-PHARMA, priority 2012, dated 2017).

A short description of data set [1]: In vitro dissolution of UPA from gelatin gel capsules (paddle device, European Pharmacopoeia §2.9.3, 900 ml). Particulars: 30 mg UPA capsule, 900 ml gastric pH buffer + 0.1% SDS, 37°C, 50 rpm, mean of 3. Format: physicochemical. The protocol:
The in vitro dissolution test can be carried out using any commercially available device comprising paddles. Example 1 hereinafter presents implementing conditions for determining the in vitro dissolution rate of a comicronizate according to the invention. Briefly, an amount of comicronizate representing 30 mg of active ingredient is placed in a gelatin gel capsule. This gel capsule is then placed in 900 ml of a medium buffered at gastric pH, comprising 0.1% of SDS, at 37±0.5° C., and subjected to stirring at 50 revolutions per minute (rpm) (speed of rotation of the paddles of the dissolution device).
For each comicronizate obtained, hard gelatin gel capsules containing an amount of comicronizate corresponding to 30 mg of UPA per capsule were prepared. The studies of in vitro dissolution of UPA as comicronizate were carried out using these capsules according to the European Pharmacopoeia in §2.9.3, using a paddle dissolution device. For each comicronizate, a gel capsule containing said comicronizate was placed in a bowl of the dissolution device containing 900 ml of a dissolution medium. The dissolution medium is an aqueous solution buffered at gastric pH and comprising 0.1% by weight of SDS. The conditions for carrying out the in vitro dissolutions are the following: • Paddle rotation speed: 50 revolutions per minute (rpm) • Temperature: 37° C.±0.5° C.
The dissolution of the UPA was monitored by spectrophotometry.
By way of control experiment, a gelatin gel capsule containing 30 mg of ulipristal acetate micronized alone (i.e. UPA micronized in the absence of any co-micronization excipient) was used.
For each comicronizate, the dissolution experiment was reproduced 3 times. […]

Data set [2] in a line: Pharmacokinetic study in rats (plasma UPA by LC/MS/MS). Format: in vivo. The following applies: female, OFA(SD), rat, 4 mg UPA per kg, powder into the stomach, pooled plasma. The protocol:
The pharmacokinetic study was carried out on female OFA(SD) rats weighing between 0.206 and 0.251 kg. The animals were deprived of food for 16 hours before the administration of the samples. The animals were placed in cages, the temperature of which was maintained between 20 and 25° C.; the day/night cycles were 12 h each (6 am-6 pm) and the air was conditioned using a ventilation system.
The samples tested are the following: • Comicronizate of ulipristal acetate/SDS, 1/1 ratio • Powder of ulipristal acetate micronized in the absence of any excipient (UPA micronized alone)
A predetermined amount of powder was administered by means of an oesophageal tube using a cannula. The powder was introduced into the stomach of each animal using a catheter. The dose administered corresponds to 4 mg of ulipristal acetate per kg.
Blood samples of 300 μl were taken from the (left or right) jugular of the rats. In order to avoid excessively high blood sampling, the rats were divided into 3 groups of 6 rats as follows:
The samples were collected on heparin tubes and then centrifuged within the hour for 7-8 min at 1600 g at 4° C. At each sampling time, the plasma of the 6 rats of the group is “pooled”.
The ulipristal acetate was assayed by LC/MS/MS under the following conditions: • Mobile phase: Methanol/distilled water (70/30, V/V)+1% acetic acid • Column: BDS Hypersil phenyl, 100×2.1 mm, 5 μm • Elution mode: isocratic • flow rate: 0.400 ml/min • Injection volume: 10.0 μl • Needle cleaning liquid: Acetonitrile/isopropanol/acetone (40/40/20, V/V/V) 2. Results

For data set [3] the following is noted: chronic administration, 5 mg or 10 mg per day; cited from earlier work.
For data set [4] the following is noted: single dose of 30 mg within 120 hours following unprotected intercourse; cited from earlier work.

Usually Tmax stands for the time from dosing to the highest level. A word on the AUC(0-inf): it is total exposure, with the tail of the curve extrapolated. Lower therefore signals less exposure. Usually AUC(0-t) stands for the area under the concentration-time curve up to a stated or last time point. Low readings indicate low exposure, high ones high exposure. Usually Cmax stands for the maximum level reached in the sampled fluid or tissue. In the case of `CC(=O)O[C@]1(C(C)=O)CCC2C3CCC4=CC(=O)CCC4=C3[C@@H](c3ccc(N(C)C)cc3)C[C@@]21C` (stereo partly drawn) [UPA micronized alone, 17α-acetoxy-11β-[4-(N,N-dimethylamino)-phenyl]-19-norpregna-4,9-diene-3,20-dione], the “Percentage of UPA released relative to initial amount per gel capsule” value is listed as 0.0% in data set [1] (t=0 min); 0.0% in data set [1] (t=1 min); 5.5% in data set [1] (t=5 min); 15.00% in data set [1] (t=7.5 min); 22.30% in data set [1] (t=10 min); 30.00% in data set [1] (t=15 min). The “Percentage of UPA released relative to initial amount per gel capsule” value in data set [1] (t=20 min) is 34.30%; in data set [1] (t=20 min, listed as Micronized UPA (in the absence of excipient)) it was 34.30%; in data set [1] (t=20 min, listed as ulipristal acetate which has been micronized in the absence of excipient) it was “approximately 35%”; in data set [1] (t=30 min) it was 39.50%; in data set [1] (t=45 min), 47.50%; in data set [1] (t=60 min), 53.80%. In data set [2] (oral), the Tmax stood at 1.25 h. Further, in data set [2] (po, 4 mg/kg), the AUC(0-inf) turned out to be 1380 ng·h/mL. Also, in data set [2] (po, 4 mg/kg), the AUC(0-t) is 1340 ng·h/mL. The same molecule yielded a Cmax in data set [2] (po, 4 mg/kg) of 447 ng/mL.

As for `CC(=O)O[C@]1(C(C)=O)CCC2C3CCC4=CC(=O)CCC4=C3[C@@H](c3ccc(N(C)C)cc3)C[C@@]21C` (stereo partly drawn) [UPA, 17α-acetoxy-11β-[4-(N,N-dimethylamino)-phenyl]-19-norpregna-4,9-diene-3,20-dione], the “Effect on symptoms associated with uterine fibromas” value in data set [3] was “significantly reduce the symptoms associated with uterine fibromas”. Moreover, the Emergency contraceptive effect result in data set [4] was “makes it possible to prevent an unwanted pregnancy”.
